According to patent US20260207718A1, “METHODS FOR TREATING LATE ONSET POMPE DISEASE IN PEDIATRIC PATIENTS” (Amicus Therapeutics, Inc., priority 2022, published 2026):
Read-outs that look alike come from different tables or passages of the source.

Columns and labels:
[1] = ATB200-04 trial: population PK exposure matching of adolescents to adults; type: in vivo, human; conditions: for AUC(0-t) / Cmax: human, plasma
Text: The ATB200-04 trial seeks to evaluate the safety and tolerability of cipaglucosidase alfa/miglustat co-administration.
Subjects have scheduled PK assessments at Day 1, Week 26, and Week 52 for plasma total GAA protein and miglustat.
Population PK parameters include clearance (CL) and volume of distribution (V), estimated from total GAA protein concentrations and miglustat concentrations in plasma.
Methods for Exposure Matching. Pediatric PK data from both clinical trials and expanded access programs were used for exposure matching to adult PK data. […] The previous base population PK models from cipaglucosidase alfa-atga and miglustat were rerun with the updated dataset. To account for longitudinal changes in body size for pediatric patients, the time-varying body weight was used to estimate the effects of body size on PK parameters in the population PK models. The effect of age at baseline on clearance was also evaluated in the PK models. Individual AUC0-24 and Cmax of cipaglucosidase alfa and miglustat were predicted from the PK empirical Bayes estimates (EBEs). The time-varying body weight and baseline age in pediatrics were used in the exposure prediction. PK exposures (AUC0-24 and Cmax) were predicted for each PK visit during the study; Day 1-baseline, Week 26, and Week 52. Additionally, there were unscheduled PK visits for some subjects.
Results for Adolescent Subjects. […] The dose may have been adjusted at a later visit for exposure matching. It should be noted however, that in the early stage of the study, all subjects were started at 20 mg/kg to evaluate safety.

[2] = test system: pediatric subjects with late-onset Pompe disease; test: ATB200-04 trial: safety in pediatric subjects with LOPD; type: in vivo, human; conditions: ERT-experienced subject, Cohort 2
Text: This study includes subjects with Pompe disease except classic IOPD.
Safety assessments include monitoring of adverse events (AEs), clinical laboratory tests (chemistry, hematology, and urinalysis), physical examinations, vital signs, 12-lead electrocardiogram (ECGs), and detection of cipaglucosidase alfa antibodies.

## CCCCN1C[C@H](O)[C@@H](O)[C@H](O)[C@H]1CO [miglustat, (2R,3R,4R,5S)-1-butyl-2-(hydroxymethyl) piperidine-3,4,5-triol]
[1]; adults N=100, adolescents N=8
  predicted AUC0-24 and Cmax for adolescents relative to adult 5th and 95th percentile range: for most adolescents are within the adult 5th and 95th percentile range
[1]; oral, miglustat, predicted, Adults N=100, read-out: AUC0-24, Geo Mean
  AUC(0-t): 20400 ng·h/mL
[1]; oral, miglustat, predicted, Adults N=100, read-out: AUC0-24, Mean
  AUC(0-t): 20700 ng·h/mL
[1]; oral, miglustat, predicted, Adults N=100, read-out: AUC0-24, Median
  AUC(0-t): 20700 ng·h/mL
[1]; oral, miglustat, predicted, Adults N=100, read-out: AUC0-24, P5
  AUC(0-t): 15200 ng·h/mL
[1]; oral, miglustat, predicted, Adults N=100, read-out: AUC0-24, P95
  AUC(0-t): 28300 ng·h/mL
[1]; oral, miglustat, predicted, Adults N=100, read-out: Cmax, Geo Mean
  Cmax: 2370 ng/mL
[1]; oral, miglustat, predicted, Adults N=100, read-out: Cmax, Mean
  Cmax: 2420 ng/mL
[1]; oral, miglustat, predicted, Adults N=100, read-out: Cmax, Median
  Cmax: 2370 ng/mL
[1]; oral, miglustat, predicted, Adults N=100, read-out: Cmax, P5
  Cmax: 1720 ng/mL
[1]; oral, miglustat, predicted, Adults N=100, read-out: Cmax, P95
  Cmax: 3280 ng/mL
[1]; po, 195 mg, adolescent Subject 5, 195 mg, Week 52, 43.7 kg, read-out: individual predicted AUC0-24
  AUC(0-t): 21000 ng·h/mL
[1]; po, 195 mg, adolescent Subject 5, 195 mg, Week 52, 43.7 kg, read-out: individual predicted Cmax
  Cmax: 2330 ng/mL
[1]; po, 195 mg, adolescent Subject 6, 195 mg, Week 52, 36.5 kg, read-out: individual predicted AUC0-24
  AUC(0-t): 13500 ng·h/mL
[1]; po, 195 mg, adolescent Subject 6, 195 mg, Week 52, 36.5 kg, read-out: individual predicted Cmax
  Cmax: 1700 ng/mL
[1]; po, 260 mg, adolescent Subject 1, 260 mg, Week 52, 77.9 kg, read-out: individual predicted AUC0-24
  AUC(0-t): 20400 ng·h/mL
[1]; po, 260 mg, adolescent Subject 1, 260 mg, Week 52, 77.9 kg, read-out: individual predicted Cmax
  Cmax: 2960 ng/mL
[1]; po, 260 mg, adolescent Subject 2, 260 mg, Week 52, 83.8 kg, read-out: individual predicted AUC0-24
  AUC(0-t): 17100 ng·h/mL
[1]; po, 260 mg, adolescent Subject 2, 260 mg, Week 52, 83.8 kg, read-out: individual predicted Cmax
  Cmax: 1910 ng/mL
[1]; po, 260 mg, adolescent Subject 3, 260 mg, Week 52, 64.6 kg, read-out: individual predicted AUC0-24
  AUC(0-t): 20300 ng·h/mL
[1]; po, 260 mg, adolescent Subject 3, 260 mg, Week 52, 64.6 kg, read-out: individual predicted Cmax
  Cmax: 2170 ng/mL
[1]; po, 260 mg, adolescent Subject 4, 260 mg, Week 64, 53.3 kg, read-out: individual predicted AUC0-24
  AUC(0-t): 22300 ng·h/mL
[1]; po, 260 mg, adolescent Subject 4, 260 mg, Week 64, 53.3 kg, read-out: individual predicted Cmax
  Cmax: 2590 ng/mL
[1]; po, 260 mg, adolescent Subject 7, 260 mg, Week 52, 60.3 kg, read-out: individual predicted AUC0-24
  AUC(0-t): 15000 ng·h/mL
[1]; po, 260 mg, adolescent Subject 7, 260 mg, Week 52, 60.3 kg, read-out: individual predicted Cmax
  Cmax: 1850 ng/mL
[1]; po, 260 mg, adolescent Subject 8, 260 mg, Week 72, 38.5 kg, read-out: individual predicted AUC0-24
  AUC(0-t): 19600 ng·h/mL
[1]; po, 260 mg, adolescent Subject 8, 260 mg, Week 72, 38.5 kg, read-out: individual predicted Cmax
  Cmax: 1800 ng/mL
[1]; po, miglustat, predicted, Adolescents N=8, read-out: AUC0-24, Geo Mean
  AUC(0-t): 18400 ng·h/mL
[1]; po, miglustat, predicted, Adolescents N=8, read-out: AUC0-24, Mean
  AUC(0-t): 18700 ng·h/mL
[1]; po, miglustat, predicted, Adolescents N=8, read-out: AUC0-24, Median
  AUC(0-t): 20000 ng·h/mL
[1]; po, miglustat, predicted, Adolescents N=8, read-out: AUC0-24, P5
  AUC(0-t): 14100 ng·h/mL
[1]; po, miglustat, predicted, Adolescents N=8, read-out: AUC0-24, P95
  AUC(0-t): 21800 ng·h/mL
[1]; po, miglustat, predicted, Adolescents N=8, read-out: Cmax, Geo Mean
  Cmax: 2130 ng/mL
[1]; po, miglustat, predicted, Adolescents N=8, read-out: Cmax, Mean
  Cmax: 2160 ng/mL
[1]; po, miglustat, predicted, Adolescents N=8, read-out: Cmax, Median
  Cmax: 2040 ng/mL
[1]; po, miglustat, predicted, Adolescents N=8, read-out: Cmax, P5
  Cmax: 1740 ng/mL
[1]; po, miglustat, predicted, Adolescents N=8, read-out: Cmax, P95
  Cmax: 2830 ng/mL
[1]; miglustat, 90% CI (79.51, 101.54)
  Cmax, geometric LSM Ratio adolescents to adults: 89.85
[1]; miglustat, 90% CI (80.58, 101.21)
  AUC0-24, geometric LSM Ratio adolescents to adults: 90.31
[2]
  investigator-assessed relatedness of anaphylaxis event (both episodes): unrelated
